Assay results as given in patent publication US4643989A, “Inhibition of aldosterone secretion” (The Salk Institute for Biological Studies, priority 1984, dated 1987).
Bridges are numbered along the chain shown (N, C = ends).

Legend:
rat glomerulosa cells [1] = test: ACTH-stimulated aldosterone secretion by rat glomerulosa cells; format: cell-based; settings: equimolar amounts of ACTH and peptide; p<0.001 versus secretagogue alone
Procedure: (§1) Rat adrenoglomerulosa cells are obtained by enzymatic digest of adrenals harvested from peripubertal male Sprague Dawley rats(Holtzman, 125 g) using previously described methods, and testing is carried out to determine the effect of synthetic rANF(8-33) on the basal secretion of aldosterone by rat glomerulosa cells. Rat glomerulosa cells are prepared by enzymatic digestion of 20 rat adrenals after ennucleation. The cells remaining on the capsule are digested for 30 minutes with a mixture of collagenase and DNase (4 mg/ml, 4 μg/ml). Dispersed cells are filtered through gauze and centrifuged at 800 rpm for 15 minutes. The pellet is resuspended in M199 buffer containing 0.1% bovine serum albumin(BSA), and the cells are centrifuged at 800 rpm for 15 minutes. The cell pellet is again resuspended in M199-0.1% BSA buffer and distributed in 900-μl aliquots to 12×75 plastic tubes. The samples are preincubated for 90 minutes in a 37° C. waterbath under an atmosphere of 5% CO2 -95% O2. […] Aldosterone and corticosterone are measured by radioimmunoassay using antisera purchased from Endocrine Sciences, Oxnard, Calif. and [^3 H]-labelled steroid from New England Nuclear, Boston, Mass. […]
(§2) Similar inhibitory effects on aldosterone formation are obtained when its secretion by the glomerulosa cells in vitro is stimulated with either ACTH or AN-II. […] Aldosterone secretion is measured as above by radioimmunoassay. […]

[2] = tested on: rat adrenoglomerulosa cells; test: Basal secretion of aldosterone by rat glomerulosa cells (radioimmunoassay); format: cell-based; settings: for testing as set forth in Example II (inhibition of aldosterone secretion by rat glomerulosa cells): compared with rANF(8-33) results of Example II
Procedure: (§3) Rat adrenoglomerulosa cells are obtained by enzymatic digest of adrenals harvested from peripubertal male Sprague Dawley rats(Holtzman, 125 g) using previously described methods, and testing is carried out to determine the effect of synthetic rANF(8-33) on the basal secretion of aldosterone by rat glomerulosa cells. Rat glomerulosa cells are prepared by enzymatic digestion of 20 rat adrenals after ennucleation. The cells remaining on the capsule are digested for 30 minutes with a mixture of collagenase and DNase (4 mg/ml, 4 μg/ml). Dispersed cells are filtered through gauze and centrifuged at 800 rpm for 15 minutes. The pellet is resuspended in M199 buffer containing 0.1% bovine serum albumin(BSA), and the cells are centrifuged at 800 rpm for 15 minutes. The cell pellet is again resuspended in M199-0.1% BSA buffer and distributed in 900-μl aliquots to 12×75 plastic tubes. The samples are preincubated for 90 minutes in a 37° C. waterbath under an atmosphere of 5% CO2 -95% O2. Aliquots of the test samples are added in a 100 μl volume and incubated for 4 hours. Aldosterone and corticosterone are measured by radioimmunoassay using antisera purchased from Endocrine Sciences, Oxnard, Calif. and [^3 H]-labelled steroid from New England Nuclear, Boston, Mass. Results are the mean±SEM of 7 replicates. Statistical analysis is performed by analysis of variance, and all points are significant (p<0.01) from control. In concentrations as low as ≤10^-9 M, there is a significant (p<0.01) inhibition of aldosterone synthesis that is even more accentuated when the higher concentrations are tested (p<0.001).

rat glomerulosa cells [3] = test: Corticosterone formation by rat glomerulosa cells (radioimmunoassay); format: cell-based; settings: 10^-7 M peptide
Procedure: as §3
In other experiments, ANF(8-33) had no effect on pituitary ACTH secretion.

rat glomerulosa cells [4] = test: AN-II-stimulated aldosterone secretion by rat glomerulosa cells; format: cell-based; settings: equimolar amounts of AN-II and peptide; p<0.001 versus secretagogue alone
Procedure: as §1, §2

pituitary ACTH secretion = test: Pituitary ACTH secretion; settings: other experiments

rANF(8-33): 26-residue fragment of rat atrial natriuretic factor with disulfide bond between the Cys residues
inhibition of ACTH-stimulated aldosterone secretion (rat glomerulosa cells [1]): significant inhibition of aldosterone secretion
stimulation of aldosterone [2]: at no point was rANF(8-33) observed to stimulate aldosterone
concentration giving significant inhibition of aldosterone synthesis (basal secretion) ([2]; basal, 4 hours incubation, p<0.01 versus control, more accentuated at higher concentrations (p<0.001)): ≤ 10^-9 M
basal corticosterone formation (rat glomerulosa cells [3]; decrease from 24.7±0.8 ng/ml without peptide): 7.8 ± 0.3 ng/mL
AN-II-stimulated corticosterone formation (rat glomerulosa cells [3]; decrease from 37.2±1.4 ng/ml without peptide, p<0.001): 21.9 ± 0.9 ng/mL
ACTH-stimulated corticosterone formation (rat glomerulosa cells [3]; decrease from 43.4±0.7 ng/ml without peptide, p<0.001): 36.1 ± 0.7 ng/mL
inhibition of AN-II-stimulated aldosterone secretion (rat glomerulosa cells [4]): significant inhibition of aldosterone secretion
effect on pituitary ACTH secretion (pituitary ACTH secretion): no effect

rANF(8-30): rat ANF fragment 8-30
testing as set forth in Example II (inhibition of aldosterone secretion by rat glomerulosa cells) [2]: comparable results

H-Arg-Arg-Ser-Ser-Cys-Phe-Gly-Gly-Arg-Met-Asp-Arg-Ile-Gly-Ala-Gln-Ser-Gly- Leu-Gly-Cys-Asn-Ser-Phe-Tyr-OH (H-RRSSCFGGRMDRIGAQSGLGCNSFY-OH; disulfide 5-21; ends not checked) [hANF(8-33)]
testing as set forth in Example II (inhibition of aldosterone secretion by rat glomerulosa cells) [2]: comparable results

rANF(8-32)--NH2: C-terminal amide of rat ANF fragment 8-32
testing as set forth in Example II (inhibition of aldosterone secretion by rat glomerulosa cells) [2]: comparable results

rANF(3-33)--NH2: C-terminal amide of rat ANF fragment 3-33
testing as set forth in Example II (inhibition of aldosterone secretion by rat glomerulosa cells) [2]: comparable results

rANF(5-33): rat ANF fragment 5-33
testing as set forth in Example II (inhibition of aldosterone secretion by rat glomerulosa cells) [2]: comparable results
